In patent publication US20250320248A1, “MENAQUINONE-BINDING COMPOUNDS AND METHODS OF USE THEREOF” (The Rockefeller University, priority 2021, published 2025):
Starred links: 1 amine or outer side, 2 acyl side, 3 side chain; linkers in the order of their positions; H or OH if unused. Positions of bridges follow the written chain, without caps; N, C: chain ends. Non-standard residues stand in square brackets, D forms with d. Residues, ends and D or L forms follow the SMILES beside them. X1 = CCCCC[C@H](CC(=O)[*:1])O[*:2]; GABA = NCCCC(=O)O

Assays:
[1] = Isothermal titration calorimetry, DOPC liposomes containing lipid II; assay type: binding
Experimental: (§1) For MK and UQ binding, a 1:1 mixture of 1,2-dioleoyl-sn-glycero-3-phosphocholine (DOPC) and 1,2-dioleoyl-sn-glycero-3-phospho-rac-(1-glycerol) (DOPG) containing either 1.25 mol % MK4 or UQ10 was dissolved in chloroform. A lipid film was generated by drying this material under a stream of nitrogen followed by 2 h of vacuum drying. The resulting film was hydrated using 10 mM HEPES (pH 7.5) with 100 mM NaCl to give a final total lipid concentration of 5 mM. Using an Avanti Mini Extruder, this suspension was passed through a 100 nm polycarbonate filter 10 times. For ITC the sample cell was filled with 400 μL of 25 μM MBA prepared in 10 mM HEPES buffer. The syringe (150 μL) was loaded with a 5 mM lipid suspension with 1.25 mol % MK4 or UQ10. For lipid II binding, 10 mM DOPC containing 1 mol % lipid II was dissolved in chloroform. The resulting film was hydrated using 50 mM Tris (pH 7.5) with 100 mM NaCl and passed through a 100 nm polycarbonate filter 10 times. For ITC the sample cell was filled with 400 μL of 25 μM an MBA prepared in 50 mM Tris buffer. The syringe (150 μL) was loaded with a 10 mM DOPC suspension with 1 mol % lipid II. Data were collected by using an Auto-iTC200 (Malvern Panalytical) and processed by Affinimeter software using the “one binding site” model.

[2] = Isothermal titration calorimetry, DOPC:DOPG liposomes containing MK; assay type: binding
Experimental: as §1

[3] = system: Gram-positive bacteria (Bacillus subtilis, Staphylococcus aureus and Staphylococcus epidermidis); assay: Antibacterial activity against Gram-positive bacteria (broth micro-dilution); assay type: cell-based
Experimental: (§2) All antimicrobial assays were run in 96-well microtiter plates using a broth micro-dilution method. Diluted overnight cultures were used in all assays. For yeast strains, overnight cultures were diluted 2000-fold in YPD broth. For Enterococcus faecium and Staphylococcus aureus, overnight cultures were diluted 1000- and 10,000-fold in LB broth, respectively. For Streptococcus strains, overnight cultures were diluted 5,000-fold in Brain Heart Infusion (BHI) broth. For other bacteria, overnight cultures were diluted 5,000-fold in LB broth. 100 μL of each diluted culture was mixed with 100 μL of LB broth containing a syn-BNP at 2-fold serial dilutions across a 96-well microtiter plate row. The final concentration of each compound ranged from 64 to 0.25 μg/mL. Plates were incubated at 37° C. (bacteria) or 30° C. (yeast) for 16 h. The lowest concentration that inhibited visible microbial growth was recorded as the minimum inhibition concentration (MIC). All MIC assays were done in duplicate (n=2).

[4] = system: Mtb mc2 6206/mLux in J774A.1 mouse macrophages; assay type: cell-based, Mycobacterium tuberculosis
[5] = system: Mycobacterium tuberculosis
[6] = system: methicillin-resistant S. aureus COL; assay: Mouse peritonitis-sepsis model; details: single subcutaneous dose 1 h after infection
Experimental: Female outbred Swiss Webster mice were used in all experiments. S. aureus COL was grown in Mueller-Hinton Broth at 37° C. overnight and diluted with 7% type II porcine stomach mucin supplemented with 0.2 mM FeNH4-citrate. Cultures were diluted to provide a challenge inoculum of ˜5×10^8 CFU in 0.2 mL. 0.2 mL of the challenge inoculum was administered via intraperitoneal injection.
S. aureus tn:hemB = assay: MIC against S. aureus hemB transposon insertion mutant; assay type: cell-based, Staphylococcus aureus
Experimental: All antimicrobial assays were run in 96-well microtiter plates using a broth micro-dilution method. Diluted overnight cultures were used in all assays. […] For Enterococcus faecium and Staphylococcus aureus, overnight cultures were diluted 1000- and 10,000-fold in LB broth, respectively. […] For other bacteria, overnight cultures were diluted 5,000-fold in LB broth. 100 μL of each diluted culture was mixed with 100 μL of LB broth containing a syn-BNP at 2-fold serial dilutions across a 96-well microtiter plate row. The final concentration of each compound ranged from 64 to 0.25 μg/mL. Plates were incubated at 37° C. (bacteria) or 30° C. (yeast) for 16 h. The lowest concentration that inhibited visible microbial growth was recorded as the minimum inhibition concentration (MIC). All MIC assays were done in duplicate (n=2).

[7] = system: Enterococcus or Streptococcus strains; assay: MIC against all eight Enterococcus or Streptococcus strains; assay type: cell-based; details: MK-producing and MK-deficient
Experimental: as §2

Mycobacterium smegmatis = details: reported in literature; cited from earlier work

Compound: CCCCC[C@@H]1CC(=O)N[C@@H](C(C)C)C(=O)N[C@H](CCCNC(=N)N)C(=O)N[C@@H](C(C)C)C(=O)NCC(=O)N2CCC[C@H]2C(=O)N[C@@H](CC(C)C)C(=O)N[C@H](CCCNC(=N)N)C(=O)N[C@@H](CCC(=O)O)C(=O)N[C@H](Cc2ccc(O)cc2)C(=O)N[C@H](C)C(=O)NCCCC(=O)O1 [MBA3 D-Trp-10 to D-Ala] (V[dR]VGPL[dR]E[dY][dA][GABA]; linker N-C via X1)
- lipid II binding [1]: no lipid II binding or similarly low lipid II binding affinities
- ability to interact with MK [2]: completely abrogated

Compound: CCCCC[C@@H]1CC(=O)N[C@@H](C(C)C)C(=O)N[C@H](CCCNC(=N)N)C(=O)N[C@@H](C(C)C)C(=O)N[C@@H](C)C(=O)N2CCC[C@H]2C(=O)N[C@@H](CC(C)C)C(=O)N[C@H](CCCNC(=N)N)C(=O)N[C@@H](CCC(=O)O)C(=O)N[C@H](Cc2ccc(O)cc2)C(=O)N[C@H](Cc2c[nH]c3ccccc23)C(=O)NCCCC(=O)O1 [MBA3 Gly-4 to L-Ala] (V[dR]VAPL[dR]E[dY][dW][GABA]; linker N-C via X1)
- ability to interact with MK [2]: completely abrogated

Compound: CCCCC[C@@H]1CC(=O)N[C@@H](C(C)C)C(=O)N[C@H](CCCNC(=N)N)C(=O)N[C@@H](C(C)C)C(=O)NCC(=O)N2CCC[C@H]2C(=O)N[C@@H](CC(C)C)C(=O)N[C@H](CCCNC(=N)N)C(=O)N[C@@H](CCC(=O)O)C(=O)N[C@H](Cc2ccc(O)cc2)C(=O)N[C@H](Cc2c[nH]c3ccccc23)C(=O)NCCCC(=O)O1 [MBA3, metameb] (V[dR]VGPL[dR]E[dY][dW][GABA]; linker N-C via X1)
- antibacterial activity against Gram-positive bacteria [3]: good Gram-positive antibiosis
- relative potency in macrophage assay [4]: most potent
- lipid II binding [1]: no lipid II binding or similarly low lipid II binding affinities
- activity against Mtb [5]: active
- MIC ([5]; lowest MIC against MDR Mtb): ≥ 0.078 µg/mL
- mortality of infected mice compared to vehicle ([6]; 5, 10 and 30 mg/kg): dramatically decreased
- minimal dose required for 100% survival [6]: 10 mg/kg

Compound: CCCCC[C@@H]1CC(=O)N[C@@H](C(C)C)C(=O)N[C@H](CCC(=O)O)C(=O)N[C@@H](CCCNC(=N)N)C(=O)NCC(=O)N2CCC[C@H]2C(=O)N[C@@H](CC(C)C)C(=O)N[C@H](CCC(N)=O)C(=O)N[C@@H](CCC(=O)O)C(=O)N[C@H](Cc2ccc(O)cc2)C(=O)N[C@H](Cc2c[nH]c3ccccc23)C(=O)NCCCC(=O)O1 [MBA4, alcameb] (V[dE]RGPL[dQ]E[dY][dW][GABA]; linker N-C via X1)
- antibacterial activity against Gram-positive bacteria [3]: good Gram-positive antibiosis

Compound: CN[C@H](CC(C)C)C(=O)N[C@H]1C(=O)N[C@@H](CC(N)=O)C(=O)N[C@H]2C(=O)N[C@H]3C(=O)N[C@H](C(=O)N[C@H](C(=O)O)c4cc(O)cc(O)c4-c4cc3ccc4O)[C@H](O)c3ccc(c(Cl)c3)Oc3cc2cc(c3O[C@@H]2O[C@H](CO)[C@@H](O)[C@H](O)[C@H]2O[C@H]2C[C@](C)(N)[C@H](O)[C@H](C)O2)Oc2ccc(cc2Cl)[C@H]1O [vancomycin]
- MIC difference between wild-type S. aureus and tn:hemB strain (S. aureus tn:hemB): no significant differences in MIC
- antibacterial activity [7]: active

Compound: lysobactin
- MIC difference between wild-type S. aureus and tn:hemB strain (S. aureus tn:hemB): no significant differences in MIC
- antibacterial activity [7]: active

Compound: lysocin E
- activity against Mycobacterium smegmatis (Mycobacterium smegmatis): active

Compound: nisin
- MIC difference between wild-type S. aureus and tn:hemB strain (S. aureus tn:hemB): no significant differences in MIC
- antibacterial activity [7]: active
- Kd ([1]; read-out: lipid II binding affinity Kd): 70 nM

Compound: ramoplanin
- MIC difference between wild-type S. aureus and tn:hemB strain (S. aureus tn:hemB): no significant differences in MIC
- antibacterial activity [7]: active
